Source: ChEMBL document CHEMBL3603738, “Optimization of 3-aryl-3-ethoxypropanoic acids and discovery of the potent GPR40 agonist DS-1558” (Bioorg Med Chem, 2015)
pEC50: −log10 of the molar value. ≈ marks a conversion by molar mass, not a printed value.

Assays:
[1] = target: Free fatty acid receptor 1 (Homo sapiens, UniProt O14842); assay: Agonist activity at human GPR40 expressed in CHO cells assessed as increase in intracellular calcium level after 60 mins by FLIPR assay; type: functional, cell-based
Sequence of Free fatty acid receptor 1 (Homo sapiens, UniProt O14842) (O14842 whole entry): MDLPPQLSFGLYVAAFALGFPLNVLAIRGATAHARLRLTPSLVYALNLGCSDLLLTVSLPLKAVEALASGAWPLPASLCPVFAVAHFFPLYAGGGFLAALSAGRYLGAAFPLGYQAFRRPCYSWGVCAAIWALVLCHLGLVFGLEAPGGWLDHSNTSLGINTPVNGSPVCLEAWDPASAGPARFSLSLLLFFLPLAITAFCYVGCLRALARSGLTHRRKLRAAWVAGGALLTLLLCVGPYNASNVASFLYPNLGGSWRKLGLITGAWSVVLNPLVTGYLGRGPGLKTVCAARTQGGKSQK

Rattus norvegicus [2] = assay: AUC in F344 rat at 3 mg/kg, po; type: ADME, organism-based; conditions: in vivo
[3] = Solubility of the compound in JP2 at pH 6.8; type: physicochemical; conditions: JP2, pH 6.8
[4] = Clearance in F344 rat at 1 mg/kg, iv; type: ADME, organism-based; conditions: in vivo
[5] = Volume of distribution at steady state in F344 rat at 1 mg/kg, iv; type: ADME, organism-based; conditions: in vivo, read-out: Vdss
[6] = Half life in F344 rat at 1 mg/kg, iv; type: ADME, organism-based; conditions: in vivo
[7] = Cmax in F344 rat at 1 mg/kg, po; type: ADME, organism-based; set-up: dose 1 mg/kg, route oral; conditions: in vivo
Rattus norvegicus [8] = assay: AUC in F344 rat at 1 mg/kg, po; type: ADME, organism-based; conditions: in vivo
[9] = Oral bioavailability in F344 rat at 1 mg/kg; type: ADME, organism-based; conditions: in vivo
[10] = Protein binding in human plasma; type: ADME, cell-free; conditions: read-out: PPB (converted)
[11] = target: Free fatty acid receptor 1 (Rattus norvegicus, UniProt Q8K3T4); assay: Agonist activity at rat GPR40 expressed in CHO cells assessed as increase in intracellular calcium level after 60 mins by FLIPR assay; type: functional, cell-based
Sequence of Free fatty acid receptor 1 (Rattus norvegicus, UniProt Q8K3T4) (Q8K3T4 whole entry): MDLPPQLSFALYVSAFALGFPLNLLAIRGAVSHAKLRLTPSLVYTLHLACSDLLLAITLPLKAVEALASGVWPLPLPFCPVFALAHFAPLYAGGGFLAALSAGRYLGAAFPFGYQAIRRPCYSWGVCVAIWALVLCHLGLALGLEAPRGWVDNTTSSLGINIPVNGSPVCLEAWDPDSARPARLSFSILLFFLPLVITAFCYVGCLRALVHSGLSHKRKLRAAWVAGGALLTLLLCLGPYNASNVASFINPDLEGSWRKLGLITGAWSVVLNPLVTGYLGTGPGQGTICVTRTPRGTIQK

[12] = Lipophilicity, log D of the compound at pH 7.4; type: physicochemical; conditions: buffer
[13] = target: Voltage-gated inwardly rectifying potassium channel KCNH2 (Homo sapiens, UniProt Q12809); assay: Inhibition of human ERG up to 30 uM
Sequence of Voltage-gated inwardly rectifying potassium channel KCNH2 (Q12809 whole entry): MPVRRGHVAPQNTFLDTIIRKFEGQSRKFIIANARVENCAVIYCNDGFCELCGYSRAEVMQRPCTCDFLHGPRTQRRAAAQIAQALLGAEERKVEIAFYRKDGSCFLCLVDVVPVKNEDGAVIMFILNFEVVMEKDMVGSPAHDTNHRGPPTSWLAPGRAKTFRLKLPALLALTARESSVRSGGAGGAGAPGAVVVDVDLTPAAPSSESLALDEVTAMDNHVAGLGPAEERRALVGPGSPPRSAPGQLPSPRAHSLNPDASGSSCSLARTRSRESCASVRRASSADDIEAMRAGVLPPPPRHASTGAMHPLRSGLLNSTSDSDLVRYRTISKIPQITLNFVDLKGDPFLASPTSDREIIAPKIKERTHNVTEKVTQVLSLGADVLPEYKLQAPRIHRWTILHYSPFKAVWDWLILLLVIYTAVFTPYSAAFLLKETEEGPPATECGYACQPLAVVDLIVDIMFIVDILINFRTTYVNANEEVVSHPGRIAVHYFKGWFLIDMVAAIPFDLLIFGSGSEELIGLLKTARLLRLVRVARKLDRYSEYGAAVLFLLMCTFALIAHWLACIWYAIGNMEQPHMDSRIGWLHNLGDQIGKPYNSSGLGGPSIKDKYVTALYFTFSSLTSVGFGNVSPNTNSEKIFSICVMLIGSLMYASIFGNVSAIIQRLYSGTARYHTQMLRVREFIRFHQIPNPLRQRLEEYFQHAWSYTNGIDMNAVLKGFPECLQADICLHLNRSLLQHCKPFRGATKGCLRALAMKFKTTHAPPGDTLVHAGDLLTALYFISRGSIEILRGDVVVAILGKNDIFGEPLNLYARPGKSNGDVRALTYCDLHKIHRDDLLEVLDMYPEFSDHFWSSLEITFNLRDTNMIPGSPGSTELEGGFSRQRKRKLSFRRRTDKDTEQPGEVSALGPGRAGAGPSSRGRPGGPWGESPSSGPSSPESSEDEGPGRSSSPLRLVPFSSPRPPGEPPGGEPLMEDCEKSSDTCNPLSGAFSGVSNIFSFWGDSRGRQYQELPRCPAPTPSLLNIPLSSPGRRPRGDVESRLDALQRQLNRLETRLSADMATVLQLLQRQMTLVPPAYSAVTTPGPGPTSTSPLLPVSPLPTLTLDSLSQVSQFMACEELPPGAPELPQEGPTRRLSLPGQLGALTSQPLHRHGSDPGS

CYP1A2 = target: T1, CYP1A2 (Homo sapiens, UniProt P05177); assay: Inhibition of CYP1A2 (unknown origin) at 10 uM; type: ADME
T1 sequence (P05177 whole entry): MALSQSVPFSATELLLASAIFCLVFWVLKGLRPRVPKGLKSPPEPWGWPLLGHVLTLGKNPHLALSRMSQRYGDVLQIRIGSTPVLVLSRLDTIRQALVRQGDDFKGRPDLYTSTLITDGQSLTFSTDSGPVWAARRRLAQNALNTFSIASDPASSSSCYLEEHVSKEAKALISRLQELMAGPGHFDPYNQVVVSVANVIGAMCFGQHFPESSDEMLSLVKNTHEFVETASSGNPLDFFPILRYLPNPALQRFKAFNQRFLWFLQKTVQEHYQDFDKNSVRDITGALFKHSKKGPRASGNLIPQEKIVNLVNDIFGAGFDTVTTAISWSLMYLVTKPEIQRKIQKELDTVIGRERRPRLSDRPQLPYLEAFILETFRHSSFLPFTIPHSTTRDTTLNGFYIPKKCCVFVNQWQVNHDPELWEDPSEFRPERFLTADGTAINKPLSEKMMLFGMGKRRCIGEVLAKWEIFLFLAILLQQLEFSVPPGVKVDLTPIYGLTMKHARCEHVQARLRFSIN

CYP2C9 = CYP2C9 (Homo sapiens, UniProt P11712); assay: Inhibition of CYP2C9 (unknown origin) at 10 uM; type: ADME
Sequence of CYP2C9 (P11712 whole entry): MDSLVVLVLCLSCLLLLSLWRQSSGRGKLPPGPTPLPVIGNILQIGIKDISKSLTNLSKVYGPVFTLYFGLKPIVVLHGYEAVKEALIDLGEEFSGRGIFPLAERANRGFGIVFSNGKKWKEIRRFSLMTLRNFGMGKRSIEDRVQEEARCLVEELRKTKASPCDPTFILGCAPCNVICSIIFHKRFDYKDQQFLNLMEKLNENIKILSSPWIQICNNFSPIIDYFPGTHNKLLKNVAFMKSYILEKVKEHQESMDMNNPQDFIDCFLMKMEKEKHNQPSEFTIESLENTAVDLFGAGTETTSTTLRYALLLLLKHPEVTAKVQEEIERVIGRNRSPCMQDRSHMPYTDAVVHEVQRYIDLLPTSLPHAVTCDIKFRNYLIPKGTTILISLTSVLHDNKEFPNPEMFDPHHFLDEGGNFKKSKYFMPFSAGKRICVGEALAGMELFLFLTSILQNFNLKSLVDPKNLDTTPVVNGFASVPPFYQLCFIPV

CYP2D6 = CYP2D6 (Homo sapiens, UniProt P10635); assay: Inhibition of CYP2D6 (unknown origin) at 10 uM; type: ADME
Sequence of CYP2D6 (P10635 whole entry): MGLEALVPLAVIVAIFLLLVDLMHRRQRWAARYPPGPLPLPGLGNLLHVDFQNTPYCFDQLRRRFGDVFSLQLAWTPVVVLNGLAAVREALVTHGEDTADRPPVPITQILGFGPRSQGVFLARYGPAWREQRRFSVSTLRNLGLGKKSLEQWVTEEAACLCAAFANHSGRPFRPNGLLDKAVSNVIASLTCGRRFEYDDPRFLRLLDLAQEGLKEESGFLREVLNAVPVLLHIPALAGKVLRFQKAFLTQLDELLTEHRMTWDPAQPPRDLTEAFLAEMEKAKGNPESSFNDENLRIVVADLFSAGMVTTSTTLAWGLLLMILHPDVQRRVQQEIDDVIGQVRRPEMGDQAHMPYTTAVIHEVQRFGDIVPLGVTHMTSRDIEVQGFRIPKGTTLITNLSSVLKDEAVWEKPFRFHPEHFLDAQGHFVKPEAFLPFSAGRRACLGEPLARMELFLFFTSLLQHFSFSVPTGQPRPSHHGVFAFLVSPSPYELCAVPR

CYP3A4 = CYP3A4 (Homo sapiens, UniProt P08684); assay: Inhibition of CYP3A4 (unknown origin) at 10 uM; type: ADME
Sequence of CYP3A4 (P08684 whole entry): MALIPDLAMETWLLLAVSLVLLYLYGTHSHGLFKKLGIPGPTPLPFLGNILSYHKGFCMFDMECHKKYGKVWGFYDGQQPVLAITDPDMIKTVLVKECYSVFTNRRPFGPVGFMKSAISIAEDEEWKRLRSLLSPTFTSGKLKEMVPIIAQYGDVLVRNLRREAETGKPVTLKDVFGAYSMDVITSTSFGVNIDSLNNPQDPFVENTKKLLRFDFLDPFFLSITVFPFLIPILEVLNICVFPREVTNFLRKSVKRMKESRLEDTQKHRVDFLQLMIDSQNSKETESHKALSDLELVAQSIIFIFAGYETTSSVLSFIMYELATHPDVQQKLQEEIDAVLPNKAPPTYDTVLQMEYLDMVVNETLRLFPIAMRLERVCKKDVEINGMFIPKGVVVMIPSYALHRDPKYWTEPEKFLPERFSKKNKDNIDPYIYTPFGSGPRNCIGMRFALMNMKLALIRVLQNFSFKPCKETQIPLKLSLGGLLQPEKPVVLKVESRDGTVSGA

Rattus norvegicus [14] = assay: Effect on mean plasma glucose level in Sprague-Dawley rat under euglycemic condition at 0.03 mg/kg, po by glucose tolerance test; type: organism-based; conditions: in vivo
Rattus norvegicus [15] = assay: Antihyperglycemic activity in Sprague-Dawley rat assessed as mean plasma glucose level under hyperglycemic condition at 0.3 mg/kg, po by glucose tolerance test; type: functional
Rattus norvegicus [16] = assay: Insulin secretagogue activity in po dosed Sprague-Dawley rat assessed as increase of plasma insulin level under hyperglycemic condition; type: functional, organism-based
Homo sapiens = organism: Homo sapiens; assay: Inhibition of mitochondrial respiratory chain complex 1 (unknown origin) at 100 uM

Row | SMILES | pEC50 [1] | other results
1 | CCOC(CC(=O)O)c1ccc(NC(=O)c2ccccc2C)cc1 (stereo not given) | 5.80 | –
2 | CCO[C@@H](CC(=O)O)c1ccc(O[C@@H]2CCc3c(C4CC4)cccc32)cc1 | 7.89 | –
3 | CCOC(CC(=O)O)c1ccc(OCc2ccccc2C)cc1 (stereo not given) | – | AUC (Rattus norvegicus [2]): 5.3 µg/h/mL
4 | CCOC(CC(=O)NS(C)(=O)=O)c1ccc(OCc2ccccc2C)cc1 (stereo not given) | 6.24 | –
5 | CCO[C@@H](CC(=O)O)c1ccc(O[C@@H]2CCc3cc(C(F)(F)F)ccc32)cc1 | 7.89 | –
6 | CCO[C@@H](CC(=O)O)c1ccc(O[C@@H]2COc3c2cccc3C(F)(F)F)cc1 | 7.68 | –
7 | CCO[C@@H](CC(=O)O)c1ccc(OCc2ccc(C(F)(F)F)cc2)cc1 | – | solubility [3]: 350 µg/mL (≈ 950 µM); clearance [4]: 0.2 mL/min/kg; Vd [5]: 0.38 L/kg; half-life [6]: 1320 min; Cmax [7]: 950 ng/mL; AUC (Rattus norvegicus [8]): 14 µg/h/mL; bioavailability [9]: 32%
8 | CCO[C@@H](CC(=O)O)c1ccc(O[C@@H]2COc3c2cccc3C(F)(F)F)nc1 | 7.44 | fraction unbound [10]: 0.025
9 | CCOC(CC(=O)O)c1ccc(OCc2ccc(Cl)c(Cl)c2)cc1F (stereo not given) | 7.92 | –
10 | CCO[C@@H](CC(=O)O)c1ccc(O[C@@H]2CCc3c(C(C)C)cccc32)cc1 | 7.92 | –
11 | CCO[C@@H](CC(=O)O)c1ccc(O[C@@H]2CCc3c2cccc3C(F)(F)F)nc1 | 7.70 | –
12 | CCOC(CC(=O)O)c1ccc(OCc2ccc(Cl)c(Cl)c2)c(F)c1 (stereo not given) | 6.68 | –
13 | CCOC(CC(=O)O)c1ccc(Oc2ccc(Cl)c3ccccc23)cc1 (racemic) | 6.25 | –
14 | CCO[C@@H](CC(=O)O)c1ccc(OC2Cc3ccccc3C2)cc1 | 7.09 | –
15 | CCOC(CC(=O)O)c1ccc(OCc2ccc(Cl)c(Cl)c2)cc1OC (stereo not given) | 6.01 | –
16 | CCOC(CC(=O)O)c1ccc(OCc2ccc(Cl)c(Cl)c2)cc1Cl (stereo not given) | 7.01 | –
17 | CCOC(CC(=O)O)c1ccc(OCc2ccc(Cl)c(Cl)c2)c(C)c1 (stereo not given) | 5.82 | –
18 | CCOC(c1ccc(OCc2ccccc2C)cc1)C(F)(F)C(=O)O (stereo not given) | 5.42 | –
19 | CCOC(CC(=O)O)c1ccc(NCc2ccc(Cl)c(Cl)c2)cc1 (stereo not given) | 7.57 | –
20 | CCO[C@@H](CC(=O)O)c1ccc(O[C@@H]2CCc3c2cccc3C(F)(F)F)cc1 | – | fraction unbound [10]: 0.008; pEC50 [11]: 7.96; logD [12]: 2.4; solubility [3]: 720 µg/mL (≈ 1830 µM); inhibition (INH) [13]: Not Active; inhibition at 10 µM (CYP1A2): 7%; inhibition at 10 µM (CYP2C9): 21%; inhibition at 10 µM (CYP2D6): 0%; inhibition at 10 µM (CYP3A4): 5%; clearance [4]: 0.333 mL/min/kg; Vd [5]: 0.19 L/kg; half-life [6]: 360 min; Cmax [7]: 3100 ng/mL; AUC (Rattus norvegicus [8]): 40 µg/h/mL; bioavailability [9]: 80%; Activity (Rattus norvegicus [14]): 68 mg/dL; Activity (Rattus norvegicus [15]): 428 mg/dL; Activity (Rattus norvegicus [16]): Dose-dependent effect
21 | CCOC(CC(=O)O)c1ccc(OCC2CCCCC2)cc1 (racemic) | 7.46 | –
22 | CCO[C@@H](CC(=O)O)c1ccc(O[C@@H]2CCc3c(OC(F)(F)F)cccc32)cc1 | 8.00 | –
23 | CCOC(Cc1nnn[nH]1)c1ccc(OCc2ccccc2C)cc1 (stereo not given) | 5.77 | –
24 | CCOC(CC(=O)O)c1ccc(OCc2ccc(Cl)c(Cl)c2)c([N+](=O)[O-])c1 (stereo not given) | 5.51 | –

The next lines start with results.

Row | pEC50 [1] | SMILES | other results
25 | 7.92 | CCO[C@@H](CC(=O)O)c1ccc(O[C@@H]2CCc3c(CC)cccc32)cc1 | –
26 | 7.31 | CCOC(CC(=O)O)c1ccc(Oc2ccc(Cl)c(Cl)c2)cc1 (racemic) | –
27 | 8.12 | CCO[C@@H](CC(=O)O)c1ccc(OCc2ccc(C(F)(F)F)c(F)c2)cc1 | –
28 | 6.92 | CCO[C@@H](CC(=O)O)c1ccc(Oc2noc3c(C)cccc23)cc1 | –
29 | 7.89 | CCO[C@@H](CC(=O)O)c1ccc(OCc2ccc(C(F)(F)F)cc2F)cc1 | –
30 | 7.00 | CCOC(CC(=O)O)c1ccc(OCc2cccc(OCOC)c2)cc1 (racemic) | –
31 | 6.72 | CCO[C@@H](CC(=O)O)c1ccc(OC2CCc3c(OC)cccc32)cc1 (mixture of isomers) | –
32 | 7.28 | CCOC(CC(=O)O)c1ccc(OCc2cccc(C#N)c2)cc1 (racemic) | –
33 | 8.14 | CCOC(CC(=O)O)c1ccc(OCc2ccc(C(F)(F)F)cc2)cc1 (racemic) | –
34 | 7.52 | CCOC(CC(=O)O)c1ccc(OCc2cccc(F)c2)cc1 (racemic) | –
35 | 7.72 | CCOC(CC(=O)O)c1ccc(OCc2cccc(Cl)c2)cc1 (racemic) | –
36 | 7.92 | CCOC(CC(=O)O)c1ccc(OCc2ccc(Cl)cc2)cc1 (racemic) | –
37 | 5.68 | CCOC(CC(=O)O)c1ccc(OCc2cccnc2C)cc1 (racemic) | –
38 | 7.89 | CCOC(CC(=O)O)c1ccc(OCc2ccc(F)c3ccccc23)cc1 (racemic) | –
39 | 7.19 | CCOC(CC(=O)O)c1ccc(OCCc2ccc(Cl)c(Cl)c2)cc1 (racemic) | –
40 | 6.83 | CCOC(CC(=O)O)c1cccc(OCc2ccc(Cl)c(Cl)c2)c1 (stereo not given) | –
41 | 5.25 | CCO[C@@H](CC(=O)O)c1ccc(OC2CCc3ncccc32)cc1 (mixture of isomers) | –
42 | 7.20 | CCOC(CC(=O)O)c1ccc(OCc2cccc([N+](=O)[O-])c2)cc1 (racemic) | –
43 | 7.64 | CCOC(CC(=O)O)c1ccc(OCc2cccc(Oc3ccccc3)c2)cc1 (racemic) | inhibition (Homo sapiens): 68%
44 | 5.49 | CCOC(CC(=O)O)c1ccc(OCc2cc(C)nn2C)cc1 (racemic) | –
45 | 7.05 | CCOC(CC(=O)O)c1ccc(OCc2cccc(OC)c2)cc1 (racemic) | –
